Experiments:
MHC-II DRB1*15:03 [1] = target: T1, MHC-II DRB1*15:03 (Homo sapiens, UniProt P01903+P01911, Y59H); test: Cell-free REVEAL class II binding assay; settings: signal of test peptide as percentage of allele-specific positive control peptide, fluorescence, conformation-specific monoclonal antibody
T1 construct: purchased ProImmune
Outline: (§1)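 REVEAL format, cell-free. Antibody-based fluorescence detection of native peptide–MHC-II complex; value reported as % of allele-matched positive control peptide signal.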

MHC-II DRB1*11:01 [2] = target: T2, MHC-II DRB1*11:01 (Homo sapiens, UniProt P01903+P01911, A100R/A169T/A87E/I96F/K41T/L162R/M171V/P40S/Q125H/Q178H/Q39Y/Q99D/R42S/S66Y/T262R/V115G/W38E); test: Cell-free REVEAL class II binding assay; settings: signal of test peptide as percentage of allele-specific positive control peptide, fluorescence, conformation-specific monoclonal antibody
Outline: as §1

MHC-II DRB1*15:01 [3] = target: T3, MHC-II DRB1*15:01 (Homo sapiens, UniProt P01903+P01911); test: Cell-free REVEAL class II binding assay; settings: signal of test peptide as percentage of allele-specific positive control peptide, fluorescence, conformation-specific monoclonal antibody
T3 construct: purchased ProImmune
Outline: as §1

MHC-II DRB1*04:01 [4] = target: T4, MHC-II DRB1*04:01 (Homo sapiens, UniProt P01903+P01911, A100K/A169T/F76Y/I96L/K127E/L162R/M171V/N62H/P40V/Q125Y/R42H/S133A/S149N/S66Y/V115G/V209L/W38E); test: Cell-free REVEAL class II binding assay; settings: signal of test peptide as percentage of allele-specific positive control peptide, fluorescence, conformation-specific monoclonal antibody
Outline: as §1

MHC-II DRB1*07:01 [5] = target: T5, MHC-II DRB1*07:01 (Homo sapiens, UniProt P01903+P01911, A100R/A102G/A103Q/D57E/D86V/E43K/F76Y/K127E/L162R/M171V/P40G/Q125H/Q99D/R33Q/R42Y/R54Q/S133A/S66F/T210M/V115G/Y107V/Y59L/Y89S); test: Cell-free REVEAL class II binding assay; settings: signal of test peptide as percentage of allele-specific positive control peptide, fluorescence, conformation-specific monoclonal antibody
Outline: as §1

MHC-II DRB1*03:01 [6] = target: T6, MHC-II DRB1*03:01 (Homo sapiens, UniProt P01903+P01911, A100K/A102G/A103R/A169T/F55Y/I96L/K41T/L162R/M171V/P40S/Q125H/Q178H/Q39Y/R42S/S66N/T106N/T262R/W38E/Y61H); test: Cell-free REVEAL class II binding assay; settings: signal of test peptide as percentage of allele-specific positive control peptide, fluorescence, conformation-specific monoclonal antibody
Outline: as §1

MHC-II DRB1*15:03 [7] = target: T1, MHC-II DRB1*15:03; test: Cell-free REVEAL class II stability assay; settings: half-life of peptide-MHC-II complex (h, capped at 120) x Binding Score / 100, conformational ELISA
Outline: (§2)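 Readout is a conformational ELISA with anti-HLA antibody, scoring assembly or percent denaturation of peptide–MHC-II complexes sampled at timed points. Association ran 96 hr at 10°C. The reported stability score is half-life multiplied by Binding Score, divided by 100.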

MHC-II DRB1*11:01 [8] = target: T2, MHC-II DRB1*11:01; test: Cell-free REVEAL class II stability assay; settings: half-life of peptide-MHC-II complex (h, capped at 120) x Binding Score / 100, conformational ELISA
Outline: as §2

MHC-II DRB1*15:01 [9] = target: T3, MHC-II DRB1*15:01; test: Cell-free REVEAL class II stability assay; settings: half-life of peptide-MHC-II complex (h, capped at 120) x Binding Score / 100, conformational ELISA
Outline: as §2

MHC-II DRB1*04:01 [10] = target: T4, MHC-II DRB1*04:01; test: Cell-free REVEAL class II stability assay; settings: half-life of peptide-MHC-II complex (h, capped at 120) x Binding Score / 100, conformational ELISA
Outline: as §2

MHC-II DRB1*07:01 [11] = target: T5, MHC-II DRB1*07:01; test: Cell-free REVEAL class II stability assay; settings: half-life of peptide-MHC-II complex (h, capped at 120) x Binding Score / 100, conformational ELISA
Outline: as §2

MHC-II DRB1*03:01 [12] = target: T6, MHC-II DRB1*03:01; test: Cell-free REVEAL class II stability assay; settings: half-life of peptide-MHC-II complex (h, capped at 120) x Binding Score / 100, conformational ELISA
Outline: as §2

T2 sequence (P01903 26-254 limits assumed, other chains not shown): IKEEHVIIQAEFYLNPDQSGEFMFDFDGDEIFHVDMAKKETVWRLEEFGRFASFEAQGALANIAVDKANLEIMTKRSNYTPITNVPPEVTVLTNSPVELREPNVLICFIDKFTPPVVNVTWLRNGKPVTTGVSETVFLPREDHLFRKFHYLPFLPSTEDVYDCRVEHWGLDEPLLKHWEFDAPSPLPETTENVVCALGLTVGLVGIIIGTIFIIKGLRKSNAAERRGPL
T1 sequence (P01903 26-254, other chains not shown): as the sequence (P01903 26-254 limits assumed, other chains not shown) above
T6 sequence (P01903 26-254 limits assumed, other chains not shown): as above

| Binding Score (MHC-II DRB1*15:03 [1]) | Binding Score (MHC-II DRB1*11:01 [2]) | Binding Score (MHC-II DRB1*15:01 [3]) | Binding Score (MHC-II DRB1*04:01 [4]) | Binding Score (MHC-II DRB1*07:01 [5]) | Binding Score (MHC-II DRB1*03:01 [6]) | Stability Index (MHC-II DRB1*15:03 [7]) | Stability Index (MHC-II DRB1*11:01 [8]) | Stability Index (MHC-II DRB1*15:01 [9]) | Stability Index (MHC-II DRB1*04:01 [10]) | Stability Index (MHC-II DRB1*07:01 [11]) | Stability Index (MHC-II DRB1*03:01 [12]) | Sequence |
| --- | --- | --- | --- | --- | --- | --- | --- | --- | --- | --- | --- | --- |
| 0.0% | 0.1% | 0.1% | 0.0% | 0.0% | 0.0% | 0.0 | 0.0 | 0.2 | 0.0 | 0.0 | 0.0 | PQVNNPKEWLQVDFQ [synthetic wild type FVIII 15 mer peptide] |
| 72.3% | 20.5% | 336.9% | 9.6% | 0.0% | 0.9% | 86.8 | 1.2 | 404.2 | 0.7 | 0.0 | 0.1 | PRCLTRYYSSFVNME [synthetic wild type FVIII 15 mer peptide] |
| 0.2% | 4.9% | 4.7% | 6.4% | 2.7% | 0.1% | 0.0 | 0.5 | 0.4 | 0.8 | 3.2 | 0.1 | PWFAHRTPMPKIQNV [synthetic wild type FVIII 15 mer peptide, region of ns-SNP R776G] |
| 0.0% | 0.4% | 22.9% | 1.9% | 0.0% | 0.5% | 0.0 | 0.0 | 27.5 | 0.2 | 0.0 | 0.1 | QKFSSLYISQFIIMY [synthetic wild type FVIII 15 mer peptide] |
| 0.0% | 0.1% | 0.8% | 6.6% | 0.0% | 0.0% | 0.0 | 0.0 | 0.5 | 0.5 | 0.0 | 0.0 | QKTMKVTGVTTQGVK [synthetic wild type FVIII 15 mer peptide, region of ns-SNP M2238V] |
| 1.4% | 74.9% | 8.3% | 54.3% | 2.1% | 0.0% | 0.1 | 4.5 | 10.0 | 12.6 | 2.6 | 0.0 | RIHPQSWVHQIALRM [synthetic wild type FVIII 15 mer peptide] |
| 0.0% | 0.1% | 0.0% | 0.0% | 0.0% | 0.0% | 0.0 | 0.0 | 0.0 | 0.0 | 0.0 | 0.0 | RQNVEGSYDGAYAPV [synthetic wild type FVIII 15 mer peptide, region of ns-SNP D1241E] |
| 0.0% | 0.1% | 0.4% | 18.2% | 0.0% | 0.0% | 0.0 | 0.0 | 0.5 | 12.4 | 0.0 | 0.0 | RSNAWRPQVNNPKEW [synthetic wild type FVIII 15 mer peptide] |
| 13.8% | 7.8% | 237.9% | 2.4% | 0.1% | 0.5% | 16.6 | 0.5 | 285.5 | 0.2 | 0.0 | 0.0 | SDPRCLTRYYSSFVN [synthetic wild type FVIII 15 mer peptide] |
| 0.0% | 14.9% | 1.0% | 1.0% | 0.0% | 1.3% | 0.0 | 2.2 | 1.2 | 0.1 | 0.0 | 0.0 | SGYTFKHKMVYEDTL [synthetic wild type FVIII 15 mer peptide] |
| 0.7% | 0.3% | 18.1% | 1.3% | 0.2% | 1.3% | 0.0 | 0.0 | 1.4 | 0.1 | 0.0 | 0.1 | SLHAVGVSYWKASEG [synthetic wild type FVIII 15 mer peptide] |
| 14.6% | 100.8% | 1455.4% | 38.1% | 0.0% | 4.8% | 16.4 | 27.9 | 1746.5 | 11.8 | 0.0 | 0.5 | SQFIIMYSLDGKKWQ [synthetic wild type FVIII 15 mer peptide] |
| 0.2% | 12.0% | 0.1% | 0.2% | 0.0% | 0.1% | 0.1 | 0.4 | 0.1 | 0.0 | 0.0 | 0.0 | SRPYNIYPHGITDVR [synthetic wild type FVIII 15 mer peptide, region of ns-SNP R484H] |
| 0.0% | 0.1% | 0.0% | 0.4% | 0.0% | 1.7% | 0.0 | 0.0 | 0.0 | 0.0 | 0.0 | 0.1 | SYDGAYAPVLQDFRS [synthetic wild type FVIII 15 mer peptide, region of ns-SNP D1241E] |
| 0.0% | 2.8% | 0.0% | 1.5% | 0.0% | 0.0% | 0.0 | 0.0 | 0.0 | 0.2 | 0.0 | 0.0 | SYWKASEGAEYDDQT [synthetic wild type FVIII 15 mer peptide] |

Source: paper PMC3656107, “Polymorphisms in the F8 Gene and MHC-II Variants as Risk Factors for the Development of Inhibitory Anti-Factor VIII Antibodies during the Treatment of Hemophilia A: A Computational Assessment” (PLoS Computational Biology, 2013)
